This is an account of results in patent publication US8871753B2, “Macrocyclic compounds and their use as kinase inhibitors” (Incyte Corporation, priority 2008, dated 2014).

Common to all, as to type: biochemical
In assay [1] the target is T1, Recombinant Human Anaplastic Lymphoma Kinase (Homo sapiens, UniProt Q9UM73).
T1 construct: purchased Invitrogen, Carlsbad, Calif
In words: ALK HTRF kinase assay. An outline of the steps: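 Recombinant human ALK with biotinylated peptide substrate; phosphorylation detected by HTRF using Eu-labelled anti-phosphotyrosine antibody and streptavidin-allophycocyanin. IC50 from a sigmoidal fit with Hill slope.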
On the technique in general: TR-FRET usually uses a lanthanide donor and a delayed reading to cut background.

The target of a further assay is TYK2 (Homo sapiens, UniProt P29597). In words: TYK2 kinase inhibition (Table A1).
In assay [2] the target is T2, human JAK1 (a.a. 837-1142) (Homo sapiens, UniProt P23458).
T2 construct: human JAK1 (a.a. 837-1142); His tag (N); made in house; host or cells: insect cells (baculovirus)
In words: In vitro JAK kinase assay (HTRF, phosphorylation of a biotinylated peptide), JAK1. The note with it: read-out: JAK1 IC50. In outline:
(§1)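 Kinase activity was measured as phosphorylation of a biotinylated peptide, with ATP at 90 μM for JAK1, 30 μM for JAK2 and 3 μM for JAK3. Reactions ran 1 hr at room temperature, were stopped with EDTA plus SA-APC and Eu-Py20, and were read by HTRF after 40 minutes of antibody binding.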

In assay [3] the target is T3, human JAK2 (a.a. 828-1132) (Homo sapiens, UniProt O60674).
T3 construct: JAK2 (a.a. 828-1132); His tag (N); made in house; host or cells: insect cells (baculovirus)
Nature of the assay: In vitro JAK kinase assay (HTRF, phosphorylation of a biotinylated peptide), JAK2. An outline of the steps: as §1

In assay [4] the target is T4, human JAK3 (a.a. 781-1124) (Homo sapiens, UniProt P52333).
T4 construct: JAK3 (a.a. 781-1124); His tag (N); made in house; host or cells: insect cells (baculovirus)
Nature of the assay: In vitro JAK kinase assay (HTRF, phosphorylation of a biotinylated peptide), JAK3. In outline: as §1

Setting [5] is: compound at 500 nM or 1 mM, 90 μM ATP.
Setting [6] is: method AA1 (90 μM ATP) or AA2 (1000 μM ATP), not stated per value.
The mark [7] stands for this setting: method AA1 (30 μM ATP) or AA2 (1000 μM ATP), not stated per value.
[8] abbreviates: method AA1 (3 μM ATP) or AA2 (1000 μM ATP), not stated per value.
Setting [9] is: compound at a concentration of 500 nM or 1 mM (not specified), cells shown as percentage.
Setting [10] is: Table B1, cells without percent sign.

Structures can show the parent of a compound that is named as a salt. Where two headings read alike, the source gives them in different places. Where only a bound is given, the exact number is not on record here.

T3 sequence (O60674 828-1132): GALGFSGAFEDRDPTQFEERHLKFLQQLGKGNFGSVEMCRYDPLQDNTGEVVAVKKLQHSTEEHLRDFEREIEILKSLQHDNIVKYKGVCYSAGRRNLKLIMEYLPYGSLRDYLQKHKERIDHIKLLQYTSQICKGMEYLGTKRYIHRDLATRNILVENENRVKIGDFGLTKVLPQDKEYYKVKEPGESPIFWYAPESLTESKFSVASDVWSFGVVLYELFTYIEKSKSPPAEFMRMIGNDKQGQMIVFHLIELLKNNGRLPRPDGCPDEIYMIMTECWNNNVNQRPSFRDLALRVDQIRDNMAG
TYK2, sequence (P29597 whole entry): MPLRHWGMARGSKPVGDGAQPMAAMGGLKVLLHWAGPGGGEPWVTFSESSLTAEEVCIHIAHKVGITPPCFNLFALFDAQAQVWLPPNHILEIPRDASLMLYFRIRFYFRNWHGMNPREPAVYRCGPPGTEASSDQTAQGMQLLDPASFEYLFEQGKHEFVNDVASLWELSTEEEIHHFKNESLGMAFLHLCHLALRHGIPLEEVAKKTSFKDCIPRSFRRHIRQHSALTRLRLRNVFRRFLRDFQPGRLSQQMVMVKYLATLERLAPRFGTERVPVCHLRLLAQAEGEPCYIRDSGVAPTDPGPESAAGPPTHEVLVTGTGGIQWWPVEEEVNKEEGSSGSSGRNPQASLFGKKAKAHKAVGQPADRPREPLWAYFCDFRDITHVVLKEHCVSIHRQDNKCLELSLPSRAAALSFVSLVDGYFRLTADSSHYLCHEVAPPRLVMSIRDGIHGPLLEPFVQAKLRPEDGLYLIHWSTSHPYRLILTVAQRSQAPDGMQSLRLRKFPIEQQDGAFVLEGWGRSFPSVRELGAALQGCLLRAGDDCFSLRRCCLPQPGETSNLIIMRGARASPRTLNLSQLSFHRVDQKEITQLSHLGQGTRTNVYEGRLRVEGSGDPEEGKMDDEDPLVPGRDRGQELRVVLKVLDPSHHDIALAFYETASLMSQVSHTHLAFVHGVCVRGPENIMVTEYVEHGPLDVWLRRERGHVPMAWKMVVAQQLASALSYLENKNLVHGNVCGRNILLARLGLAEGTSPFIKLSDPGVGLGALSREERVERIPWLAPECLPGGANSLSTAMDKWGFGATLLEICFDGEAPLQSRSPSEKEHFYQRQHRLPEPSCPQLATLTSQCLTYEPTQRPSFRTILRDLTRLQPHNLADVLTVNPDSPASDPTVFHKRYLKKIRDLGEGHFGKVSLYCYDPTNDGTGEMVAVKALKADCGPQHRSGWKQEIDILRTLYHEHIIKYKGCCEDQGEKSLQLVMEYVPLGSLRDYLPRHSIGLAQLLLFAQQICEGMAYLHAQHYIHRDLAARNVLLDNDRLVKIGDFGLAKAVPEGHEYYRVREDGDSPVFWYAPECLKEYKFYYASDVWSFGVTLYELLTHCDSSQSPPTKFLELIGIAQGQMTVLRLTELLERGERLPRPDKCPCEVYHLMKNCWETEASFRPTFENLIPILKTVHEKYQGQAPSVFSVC
T2 sequence (P23458 849-1154): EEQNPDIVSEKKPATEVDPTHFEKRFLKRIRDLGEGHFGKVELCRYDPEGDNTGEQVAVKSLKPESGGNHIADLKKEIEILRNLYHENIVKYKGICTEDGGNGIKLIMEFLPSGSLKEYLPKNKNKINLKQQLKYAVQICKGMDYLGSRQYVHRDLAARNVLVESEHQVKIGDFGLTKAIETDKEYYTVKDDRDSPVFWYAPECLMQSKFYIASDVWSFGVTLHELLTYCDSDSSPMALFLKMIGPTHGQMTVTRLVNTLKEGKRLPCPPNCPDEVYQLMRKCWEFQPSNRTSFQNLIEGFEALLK
T4 sequence (P52333 781-1124): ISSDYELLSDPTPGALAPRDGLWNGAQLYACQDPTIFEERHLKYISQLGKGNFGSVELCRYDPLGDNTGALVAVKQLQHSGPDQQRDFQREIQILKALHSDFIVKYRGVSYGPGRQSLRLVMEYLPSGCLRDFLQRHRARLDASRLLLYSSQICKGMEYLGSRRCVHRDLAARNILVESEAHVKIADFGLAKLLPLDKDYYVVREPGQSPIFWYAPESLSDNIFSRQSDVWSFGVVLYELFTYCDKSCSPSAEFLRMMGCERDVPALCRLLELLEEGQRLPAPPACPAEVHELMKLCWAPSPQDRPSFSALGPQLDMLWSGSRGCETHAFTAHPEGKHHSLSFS
T1 sequence (Q9UM73 19-1620): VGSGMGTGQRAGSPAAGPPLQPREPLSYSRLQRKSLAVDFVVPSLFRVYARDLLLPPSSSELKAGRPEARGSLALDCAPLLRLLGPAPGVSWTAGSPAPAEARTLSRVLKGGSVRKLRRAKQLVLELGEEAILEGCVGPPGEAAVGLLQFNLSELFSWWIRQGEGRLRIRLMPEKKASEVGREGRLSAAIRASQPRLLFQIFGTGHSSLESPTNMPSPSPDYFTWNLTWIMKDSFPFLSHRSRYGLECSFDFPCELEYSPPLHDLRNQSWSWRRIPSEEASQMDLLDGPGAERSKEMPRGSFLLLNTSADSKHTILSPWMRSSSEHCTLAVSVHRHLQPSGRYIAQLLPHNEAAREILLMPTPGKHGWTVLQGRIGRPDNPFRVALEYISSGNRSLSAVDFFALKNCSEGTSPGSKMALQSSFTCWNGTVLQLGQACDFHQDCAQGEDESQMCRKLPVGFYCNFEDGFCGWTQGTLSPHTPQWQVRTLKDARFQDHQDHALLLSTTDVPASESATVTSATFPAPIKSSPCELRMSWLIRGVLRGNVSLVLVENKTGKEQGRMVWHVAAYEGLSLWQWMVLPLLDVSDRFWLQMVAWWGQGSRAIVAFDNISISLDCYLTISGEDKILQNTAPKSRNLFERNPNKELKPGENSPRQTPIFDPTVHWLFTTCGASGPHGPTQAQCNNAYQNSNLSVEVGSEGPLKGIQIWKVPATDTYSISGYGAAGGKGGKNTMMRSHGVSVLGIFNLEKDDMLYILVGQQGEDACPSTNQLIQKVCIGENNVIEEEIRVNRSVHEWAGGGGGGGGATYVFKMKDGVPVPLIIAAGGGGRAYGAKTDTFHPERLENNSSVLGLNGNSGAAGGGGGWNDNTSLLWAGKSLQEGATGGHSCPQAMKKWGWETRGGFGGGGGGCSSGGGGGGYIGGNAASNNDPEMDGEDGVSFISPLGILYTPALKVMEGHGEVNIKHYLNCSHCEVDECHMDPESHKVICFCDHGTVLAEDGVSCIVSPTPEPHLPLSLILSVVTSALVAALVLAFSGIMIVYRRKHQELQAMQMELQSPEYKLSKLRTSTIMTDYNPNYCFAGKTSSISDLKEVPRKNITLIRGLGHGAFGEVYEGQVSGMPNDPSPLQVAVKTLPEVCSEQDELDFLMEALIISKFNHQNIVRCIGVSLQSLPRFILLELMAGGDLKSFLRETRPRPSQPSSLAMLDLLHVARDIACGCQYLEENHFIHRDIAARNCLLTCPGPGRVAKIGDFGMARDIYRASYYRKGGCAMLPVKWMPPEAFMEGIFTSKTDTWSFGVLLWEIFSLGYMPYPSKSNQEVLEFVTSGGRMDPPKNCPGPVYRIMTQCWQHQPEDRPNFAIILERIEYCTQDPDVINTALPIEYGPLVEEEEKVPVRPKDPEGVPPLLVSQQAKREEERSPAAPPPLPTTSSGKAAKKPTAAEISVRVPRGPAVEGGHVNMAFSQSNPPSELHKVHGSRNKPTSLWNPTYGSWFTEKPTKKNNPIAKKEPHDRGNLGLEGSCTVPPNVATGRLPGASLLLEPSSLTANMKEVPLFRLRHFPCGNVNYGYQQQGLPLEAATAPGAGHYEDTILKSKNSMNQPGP

A word on the IC50: it is the point on the concentration scale where inhibition reaches its midpoint. As for `CC(C)(C)C(=O)N1CCC(CC(=O)Nc2ccc3cc2CCc2cccc(c2)Nc2ncc(Cl)c(n2)N3)CC1` [Example A88, N-[6-Chloro-2,4,8,22-tetraazatetracyclo[14.3.1.1(3,7).1(9,13)]docosa-1(20),3(22),4,6,9(21),10,12,16,18-nonaen-12-yl]-2-[1-(2,2-dimethylpropanoyl)piperidin-4-yl]acetamide trifluoroacetate], the “ALK % of inhibition at a concentration of 500 nM or 1 mM” value (“ALK % of inhibition” for short) in assay [1] (setting [5]) turned out to be 22%. Further, the half-inhibitory concentration (IC50) against TYK2 came to 47 nM; in assay [2] (setting [6]) it was 14 nM; in assay [3] (setting [7]) it was 24 nM; in assay [4] (setting [8]), 86 nM.

With `O=C(Nc1ccc2cc1CCc1cncc(c1)Nc1ncc(Cl)c(n1)N2)N1CCN(c2ccccc2F)CC1` [Example B295, N-[6-Chloro-2,4,8,18,22-pentaazatetracyclo[14.3.1.1(3,7).1(9,13)]docosa-1(20),3(22),4,6,9(21),10,12,16,18-nonaen-12-yl]-4-(2-fluorophenyl)piperazine-1-carboxamide tris(trifluoroacetate)], the “ALK % of inhibition” value in assay [1] (setting [9]) was found to be 50%. The concentration for half-maximal inhibition (IC50) was 150 nM at TYK2 (Table B1), 30 nM in assay [2] (Table B1), 199 nM in assay [3] (Table B1) and greater than 200 nM in assay [4] (Table B1).

For the compound `Cc1cccc(S(=O)(=O)Nc2ccc3cc2CCc2cccc(c2)Nc2ncc(Cl)c(n2)N3)c1` [Example B148, N-[6-Chloro-2,4,8,22-tetraazatetracyclo[14.3.1.1(3,7).1(9,13)]docosa-1(20), 3(22),4,6,9(21),10,12,16,18-nonaen-12-yl]-3-methylbenzenesulfonamide trifluoroacetate], the IC50 in assay [1] (setting [10]) was 150 nM; against TYK2 (Table B1), 0.53 nM; in assay [2] (Table B1), 0.49 nM; in assay [3] (Table B1) it was 0.13 nM; in assay [4] (Table B1), 1.1 nM.

`O=S(=O)(Nc1ccc2cc1CCc1cccc(c1)Nc1ncc(Cl)c(n1)N2)c1ccccc1Cl` [Example B137, 2-Chloro-N-[6-chloro-2,4,8,22-tetraazatetracyclo[14.3.1.1(3,7).1(9,13)]docosa-1(20),3(22),4,6,9(21),10,12,16,18-nonaen-12-yl]benzenesulfonamide trifluoroacetate]: the IC50 came out at 580 nM in assay [1] (setting [10]); 0.27 nM on TYK2 (Table B1); 0.42 nM in assay [2] (Table B1); 0.11 nM in assay [3] (Table B1); 6.4 nM in assay [4] (Table B1).

With `Clc1cnc2nc1Nc1cccc(c1)CSCCc1cccc(c1)N2` [Example D32, 6-Chloro-15-thia-2,4,8,24-tetraazatetracyclo[16.3.1.1(3,7).1(9,13)]tetracosa-1(22),3(24),4,6,9(23),10,12,18,20-nonaene trifluoroacetate], the IC50 was greater than 1000 nM in assay [1] (Table D1, 90 μM ATP); 45 nM against TYK2 (Table D1); 41 nM in assay [2] (Table D1); 43 nM in assay [3] (Table D1); 84 nM in assay [4] (Table D1).

In the case of `Cc1cccc(Cl)c1NC(=O)Nc1ccc2cc1CCc1cccc(c1)Nc1ncc(Cl)c(n1)N2` [Example B122, N-(2-Chloro-6-methylphenyl)-N′-[6-chloro-2,4,8,22-tetraazatetracyclo[14.3.1.1(3,7).1(9,13)]docosa-1(20),3(22),4,6,9(21),10,12,16,18-nonaen-12-yl]urea trifluoroacetate], the “ALK % of inhibition” value in assay [1] (setting [9]) came out at 13%. In addition, the concentration for half-maximal inhibition (IC50) on TYK2 (Table B1) came out at 24 nM; in assay [2] (Table B1), 5.6 nM; in assay [3] (Table B1), 6.7 nM; in assay [4] (Table B1) it was 30 nM.

On to `O=C(CC1CCN(S(=O)(=O)c2ccccc2)CC1)Nc1ccc2cc1CCc1cccc(c1)Nc1ncc(Cl)c(n1)N2` [Example A205, N-[6-Chloro-2,4,8,22-tetraazatetracyclo[14.3.1.1(3,7).1(9,13)]docosa-1(20),3(22),4,6,9(21),10,12,16,18-nonaen-12-yl]-2-[1-(phenylsulfonyl)piperidin-4-yl]acetamide trifluoroacetate], for which the “ALK % of inhibition” value in assay [1] (setting [5]) came to 23%. Further, the half-maximal inhibitory concentration (IC50) on TYK2 was greater than 200 nM; in assay [2] (setting [6]), 52 nM; in assay [3] (setting [7]) it was 199 nM; in assay [4] (setting [8]), greater than 200 nM.

For the compound `CCOC(=O)CNC(=O)N1CCC(C(=O)Nc2ccc3cc2CCc2cccc(c2)Nc2ncc(Cl)c(n2)N3)CC1` [Example A60, Ethyl ({[4-({[6-chloro-2,4,8,22-tetraazatetracyclo[14.3.1.1(3,7).1(9,13)]docosa-1(20),3(22),4,6,9(21),10,12,16,18-nonaen-12-yl]amino}carbonyl)piperidin-1-yl]carbonyl}amino)acetate trifluoroacetate], in assay [1] (setting [5]), the “ALK % of inhibition” value is given as 28%. Also, the IC50 at TYK2 amounted to 22 nM; in assay [2] (setting [6]), 31 nM; in assay [3] (setting [7]) it was 6.5 nM; in assay [4] (setting [8]), 14 nM.

For `O=C(CC1CCN(c2ncccn2)CC1)Nc1ccc2cc1CCc1cncc(c1)Nc1ncc(Cl)c(n1)N2` [Example A172, N-[6-Chloro-2,4,8,18,22-pentaazatetracyclo[14.3.1.1(3,7).1(9,13)]docosa-1(20),3(22),4,6,9(21),10,12,16,18-nonaen-12-yl]-2-(1-pyrimidin-2-ylpiperidin-4-yl)acetamide tris(trifluoroacetate)], the “ALK % of inhibition” value in assay [1] (setting [5]) came out at 28%. In addition, the half-inhibitory concentration (IC50) at TYK2 is 237 nM; in assay [2] (setting [6]), 11 nM; in assay [3] (setting [7]), 199 nM; in assay [4] (setting [8]), greater than 1000 nM.

As for `O=C(CC1CCN(C(=O)c2ncco2)CC1)Nc1ccc2cc1CCc1cncc(c1)Nc1ncc(Cl)c(n1)N2` [Example A139, N-[6-Chloro-2,4,8,18,22-pentaazatetracyclo[14.3.1.1(3,7).1(9,13)]docosa-1(20),3(22),4,6,9(21),10,12,16,18-nonaen-12-yl]-2-[1-(1,3-oxazol-2-ylcarbonyl)piperidin-4-yl]acetamide bis(trifluoroacetate)], the “ALK % of inhibition” value in assay [1] (setting [5]) is 27%. For the same compound, the concentration for half-maximal inhibition (IC50) at TYK2 amounted to 3.4 nM; in assay [2] (setting [6]) it was 1.1 nM; in assay [3] (setting [7]), 7.6 nM; in assay [4] (setting [8]), 178 nM.

As to `COc1ccccc1NC(=O)N1CCC(CC(=O)Nc2ccc3cc2CCc2cncc(c2)Nc2ncc(Cl)c(n2)N3)CC1` [Example A152, 4-(2-{[6-Chloro-2,4,8,18,22-pentaazatetracyclo[14.3.1.1(3,7).1(9,13)]docosa-1(20),3(22),4,6,9(21),10,12,16,18-nonaen-12-yl]amino}-2-oxoethyl)-N-(2-methoxyphenyl)piperidine-1-carboxamide bis(trifluoroacetate)], the “ALK % of inhibition” value in assay [1] (setting [5]) is 37%. Besides, the half-inhibitory concentration (IC50) was 2.4 nM against TYK2, 0.4 nM in assay [2] (setting [6]), 2.4 nM in assay [3] (setting [7]) and greater than 100 nM in assay [4] (setting [8]).

In the case of `O=C(Nc1ccc2cc1CCc1cccc(c1)Nc1ncc(Cl)c(n1)N2)c1ccccc1` [Example B29, N-[6-Chloro-2,4,8,22-tetraazatetracyclo[14.3.1.1(3,7).1(9,13)]docosa-1(20), 3(22),4,6,9(21),10,12,16,18-nonaen-12-yl]benzamide trifluoroacetate], the IC50 in assay [1] (setting [10]) stood at 96 nM; on TYK2 (Table B1), 1.7 nM; in assay [2] (Table B1), 0.24 nM; in assay [3] (Table B1), 0.48 nM; in assay [4] (Table B1), 3.3 nM.

Consider `Cc1ncoc1C(=O)N1CCC(CC(=O)Nc2ccc3cc2CCc2cncc(c2)Nc2ncc(Cl)c(n2)N3)CC1` [Example A132, N-[6-Chloro-2,4,8,18,22-pentaazatetracyclo[14.3.1.1(3,7).1(9,13)]docosa-1(20),3(22),4,6,9(21),10,12,16,18-nonaen-12-yl]-2-{1-[(4-methyl-1,3-oxazol-5-yl)carbonyl]piperidin-4-yl}acetamide bis(trifluoroacetate)], for which, in assay [1] (setting [5]), the “ALK % of inhibition” value worked out at 23%. In addition, the 50% inhibitory concentration (IC50) against TYK2 is 17 nM; in assay [2] (setting [6]), 7.9 nM; in assay [3] (setting [7]) it was 18 nM; in assay [4] (setting [8]), 248 nM.

Consider `O=C(Nc1ccc2cc1CCc1cncc(c1)Nc1ncc(Cl)c(n1)N2)N1CCN(c2ccc(C(F)(F)F)cn2)CC1` [Example B301, N-[6-Chloro-2,4,8,18,22-pentaazatetracyclo[14.3.1.1(3,7).1(9,13)]docosa-1(20),3(22),4,6,9(21),10,12,16,18-nonaen-12-yl]-4-[5-(trifluoromethyl)pyridin-2-yl]piperazine-1-carboxamide tris(trifluoroacetate)], for which, in assay [1] (setting [9]), the “ALK % of inhibition” value is recorded as 58%. Also, the half-maximal inhibitory concentration (IC50) at TYK2 (Table B1) is 75 nM; in assay [2] (Table B1) it was 35 nM; in assay [3] (Table B1), greater than 400 nM; in assay [4] (Table B1), greater than 400 nM.
